Laboratory results reported in ChEMBL document CHEMBL1139006, “Synthesis and in vitro antibiotic activity of 16-membered 9-O-arylalkyloxime macrolides” (2006).
In brackets after ≈: the same amount, converted by molar mass.

Legend:
Format in all cases: functional
Streptococcus pneumoniae [1] = test: Antibacterial activity against Streptococcus pneumoniae ATCC 6301
Streptococcus pneumoniae [2] = test: Antibacterial activity against macrolide resistant Streptococcus pneumoniae ATCC 700677
Staphylococcus aureus [3] = test: Antibacterial activity against Staphylococcus aureus ATCC 29213
Staphylococcus aureus [4] = test: Antibacterial activity against macrolide resistant Staphylococcus aureus ATCC 33591
Staphylococcus aureus [5] = test: Antibacterial activity against macrolide resistant Staphylococcus aureus ATCC BAA-44
Streptococcus pneumoniae [6] = test: Antibacterial activity against macrolide resistant Streptococcus pneumoniae ATCC 700905
Staphylococcus aureus [7] = test: Antibacterial activity against macrolide resistant Staphylococcus aureus ATCC 141541
[8] = test system: Staphylococcus epidermidis; test: Antibacterial activity against Staphylococcus epidermidis ATCC 12228
Streptococcus pneumoniae [9] = test: Antibacterial activity against macrolide resistant Streptococcus pneumoniae ATCC 700906
Streptococcus pneumoniae [10] = test: Antibacterial activity against macrolide resistant Streptococcus pneumoniae ATCC 700676
Staphylococcus aureus [11] = test: Antibacterial activity against macrolide resistant Staphylococcus aureus ATCC BAA-39
Streptococcus pneumoniae [12] = test: Antibacterial activity against Streptococcus pneumoniae ATCC 700671
Staphylococcus aureus [13] = test: Antibacterial activity against Staphylococcus aureus ATCC 6538p
Enterococcus faecalis = test: Antibacterial activity against Enterococcus faecalis ATCC 51575
Streptococcus pneumoniae [14] = test: Antibacterial activity against Streptococcus pneumoniae ATCC 49619

Structure (SMILES) | MIC (Streptococcus pneumoniae [1]) | MIC (Streptococcus pneumoniae [2]) | MIC (Staphylococcus aureus [3]) | MIC (Staphylococcus aureus [4]) | MIC (Staphylococcus aureus [5]) | MIC (Streptococcus pneumoniae [6]) | MIC (Staphylococcus aureus [7]) | MIC [8] | MIC (Streptococcus pneumoniae [9]) | MIC (Streptococcus pneumoniae [10]) | MIC (Staphylococcus aureus [11]) | MIC (Streptococcus pneumoniae [12]) | MIC (Staphylococcus aureus [13]) | MIC (Enterococcus faecalis) | MIC (Streptococcus pneumoniae [14])
CC[C@H]1OC(=O)C[C@@H](O)[C@H](C)[C@@H](O[C@@H]2O[C@H](C)[C@@H](O)[C@H](N(C)C)[C@@H]2O)[C@@H](CCN2CC(C)CC(C)C2)C[C@@H](C)C(=N/O)/C=C/C(C)=C/C1CO (stereo not given in full) | 0.78 µg/mL (≈ 1.1 µM) | > 12.5 µg/mL | 12.5 µg/mL (≈ 17.6 µM) | > 12.5 µg/mL | > 12.5 µg/mL | 6.25 µg/mL (≈ 8.8 µM) | > 12.5 µg/mL | > 12.5 µg/mL | > 12.5 µg/mL | 6.25 µg/mL (≈ 8.8 µM) | > 12.5 µg/mL | 1.56 µg/mL (≈ 2.2 µM) | 3.12 µg/mL (≈ 4.39 µM) | > 12.5 µg/mL | 1.56 µg/mL (≈ 2.2 µM)
CC[C@H]1OC(=O)C[C@@H](O)[C@H](C)[C@@H](O[C@@H]2O[C@H](C)[C@@H](O)[C@H](N(C)C)[C@@H]2O)[C@@H](CCN2CC(C)CC(C)C2)C[C@@H](C)C(=O)/C=C/C(C)=C/C1CO (stereo not given in full) | 0.39 µg/mL (≈ 0.561 µM) | > 12.5 µg/mL | 1.56 µg/mL (≈ 2.24 µM) | > 12.5 µg/mL | > 12.5 µg/mL | 1.56 µg/mL (≈ 2.24 µM) | 1.56 µg/mL (≈ 2.24 µM) | 0.78 µg/mL (≈ 1.12 µM) | > 12.5 µg/mL | 1.56 µg/mL (≈ 2.24 µM) | > 12.5 µg/mL | 0.78 µg/mL (≈ 1.12 µM) | 0.39 µg/mL (≈ 0.561 µM) | > 12.5 µg/mL | 0.78 µg/mL (≈ 1.12 µM)
CC[C@H]1OC(=O)C[C@@H](O)[C@H](C)[C@@H](O[C@@H]2O[C@H](C)[C@@H](O)[C@H](N(C)C)[C@@H]2O)[C@@H](CCN2CC(C)CC(C)C2)C[C@@H](C)C(=N\OCCCc2ccc3ncccc3c2)/C=C/C(C)=C/C1CO (stereo not given in full) | 6.25 µg/mL (≈ 7.11 µM) | > 12.5 µg/mL | > 12.5 µg/mL | > 12.5 µg/mL | > 12.5 µg/mL | 12.5 µg/mL (≈ 14.2 µM) | > 12.5 µg/mL | > 12.5 µg/mL | > 12.5 µg/mL | 12.5 µg/mL (≈ 14.2 µM) | > 12.5 µg/mL | 6.25 µg/mL (≈ 7.11 µM) | > 12.5 µg/mL | > 12.5 µg/mL | 6.25 µg/mL (≈ 7.11 µM)
CC[C@H]1OC(=O)C[C@@H](O)[C@H](C)[C@@H](O[C@@H]2O[C@H](C)[C@@H](O)[C@H](N(C)C)[C@@H]2O)[C@@H](CCN2CC(C)CC(C)C2)C[C@@H](C)C(=N/OCCCCc2ccc3ncccc3c2)/C=C/C(C)=C/C1CO (stereo not given in full) | 1.56 µg/mL (≈ 1.75 µM) | > 12.5 µg/mL | 12.5 µg/mL (≈ 14 µM) | > 12.5 µg/mL | > 12.5 µg/mL | 6.25 µg/mL (≈ 7 µM) | > 12.5 µg/mL | > 12.5 µg/mL | > 12.5 µg/mL | 6.25 µg/mL (≈ 7 µM) | > 12.5 µg/mL | 3.12 µg/mL (≈ 3.49 µM) | 6.25 µg/mL (≈ 7 µM) | > 12.5 µg/mL | 6.25 µg/mL (≈ 7 µM)
CC[C@H]1OC(=O)C[C@@H](O)[C@H](C)[C@@H](O[C@@H]2O[C@H](C)[C@@H](O)[C@H](N(C)C)[C@H]2O)[C@@H](CCN2C[C@H](C)C[C@H](C)C2)C[C@@H](C)C(=O)/C=C/C(C)=C/[C@@H]1CO[C@@H]1O[C@H](C)[C@@H](O)[C@@H](OC)[C@H]1OC [TILMICOSIN] | 0.39 µg/mL (≈ 0.449 µM) | 6.25 µg/mL (≈ 7.19 µM) | 0.2 µg/mL (≈ 0.23 µM) | > 12.5 µg/mL | > 12.5 µg/mL | 1.56 µg/mL (≈ 1.79 µM) | 0.39 µg/mL (≈ 0.449 µM) | 0.098 µg/mL (≈ 0.113 µM) | > 12.5 µg/mL | 0.78 µg/mL (≈ 0.897 µM) | > 12.5 µg/mL | 0.78 µg/mL (≈ 0.897 µM) | 0.098 µg/mL (≈ 0.113 µM) | > 12.5 µg/mL | 1.56 µg/mL (≈ 1.79 µM)
CC[C@H]1OC(=O)C[C@@H](O)[C@H](C)[C@@H](O[C@@H]2O[C@H](C)[C@@H](O[C@H]3C[C@@](C)(O)[C@@H](O)[C@H](C)O3)[C@H](N(C)C)[C@H]2O)[C@@H](CC=O)C[C@@H](C)C(=O)/C=C/C(C)=C/[C@@H]1CO[C@@H]1O[C@H](C)[C@@H](O)[C@@H](OC)[C@H]1OC [TYLOSIN] | 0.098 µg/mL (≈ 0.107 µM) | > 12.5 µg/mL | 1.56 µg/mL (≈ 1.7 µM) | > 12.5 µg/mL | > 12.5 µg/mL | 0.2 µg/mL (≈ 0.218 µM) | 1.56 µg/mL (≈ 1.7 µM) | 0.39 µg/mL (≈ 0.426 µM) | > 12.5 µg/mL | 0.2 µg/mL (≈ 0.218 µM) | > 12.5 µg/mL | 0.2 µg/mL (≈ 0.218 µM) | 0.2 µg/mL (≈ 0.218 µM) | > 12.5 µg/mL | 0.098 µg/mL (≈ 0.107 µM)
